Assay results from article PMC9138994 (Biomolecules, 2022).
pKi: −log10 of the molar value.

Assays:
human 5-HT1A = target: T1, human 5-HT1A (Homo sapiens, UniProt P08908); experiment: Radioligand displacement assay at 5-HT1A ([3H]-8-OH-DPAT, HEK293 cells); type: binding; details: HEK293 cells stably expressing h5-HT1A, read-out: Ki (n), 5-HT1A
T1 construct: expressed in transfected cells; host or cells: HEK293
T1 sequence (P08908 1-422): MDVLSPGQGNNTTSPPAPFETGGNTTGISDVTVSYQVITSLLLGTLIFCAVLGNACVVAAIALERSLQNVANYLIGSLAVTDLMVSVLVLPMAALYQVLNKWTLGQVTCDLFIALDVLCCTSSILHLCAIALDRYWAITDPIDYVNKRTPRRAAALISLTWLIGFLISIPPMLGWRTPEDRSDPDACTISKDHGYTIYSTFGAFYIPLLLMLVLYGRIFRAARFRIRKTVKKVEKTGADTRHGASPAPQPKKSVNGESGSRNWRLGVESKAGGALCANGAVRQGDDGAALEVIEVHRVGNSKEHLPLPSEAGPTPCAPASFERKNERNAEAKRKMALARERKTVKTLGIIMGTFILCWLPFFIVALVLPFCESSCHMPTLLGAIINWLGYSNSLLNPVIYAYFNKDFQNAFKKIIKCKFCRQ
Description: (§1) HEK293 cells with a stable expression of human 5-HT1A, 5-HT6, 5-HT7b, and D2L (prepared with the use of Lipofectamine 2000), or CHO-K1 cells with plasmids containing the sequence coding for the human serotonin 5-HT2A receptor (PerkinElmer), were maintained at 37 °C in a humidified atmosphere with 5% CO2 and grown in Dulbecco’s Modified Eagle Medium containing 10% dialyzed fetal bovine serum and 500 µg/mL G418 sulfate. For membrane preparation, cells were subcultured in 150 cm^2 flasks, grown to 90% confluence, washed twice with prewarmed to 37 °C phosphate buffered saline (PBS) and pelleted by centrifugation (200× g) in PBS containing 0.1 mM EDTA and 1 mM dithiothreitol. Prior to membrane preparation, the pellets were stored at −80 °C.
(§2) Cell pellets were thawed and homogenized in 10 volumes of assay buffer using an Ultra Turrax tissue homogenizer, and were then centrifuged twice at 35,000× g for 15 min at 4 °C, with incubations for 15 min at 37 °C in between. […] The process of equilibration was terminated by rapid filtration through Unifilter plates with a 96-well cell harvester and the radioactivity retained on the filters was quantified on a Microbeta plate reader (PerkinElmer, Waltham, MA, USA). […] The inhibition constants (Ki) were calculated from the Cheng-Prusoff equation [38]. Results are expressed as means of two separate experiments.

human 5-HT7b = target: T2, human 5-HT7b (Homo sapiens, UniProt P34969); experiment: Radioligand displacement assay at 5-HT7 ([3H]-5-CT, HEK293 cells); type: binding; details: HEK293 cells stably expressing h5-HT7, read-out: Ki (n), 5-HT7
T2 construct: expressed in transfected cells; host or cells: HEK293
T2 sequence (P34969 1-432): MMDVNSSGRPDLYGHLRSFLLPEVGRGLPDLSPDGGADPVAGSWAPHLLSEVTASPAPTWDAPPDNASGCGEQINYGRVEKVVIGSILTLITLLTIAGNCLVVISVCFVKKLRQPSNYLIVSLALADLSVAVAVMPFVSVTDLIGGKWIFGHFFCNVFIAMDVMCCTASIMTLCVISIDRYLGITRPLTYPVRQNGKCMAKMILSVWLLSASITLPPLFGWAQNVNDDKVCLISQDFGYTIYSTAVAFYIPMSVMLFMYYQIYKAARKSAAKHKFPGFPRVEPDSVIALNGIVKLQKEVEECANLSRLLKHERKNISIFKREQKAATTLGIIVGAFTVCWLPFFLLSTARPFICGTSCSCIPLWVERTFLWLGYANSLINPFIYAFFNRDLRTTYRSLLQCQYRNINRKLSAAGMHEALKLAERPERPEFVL
Description: as §1, §2

C57BL/6 mice = experiment: Tail suspension test (TST); type: in vivo; details: for immobility time in TST: acute i.p. pretreatment, ST-2300 10 or 15 mg/kg, PIM 5–15 mg/kg, FLX 10 mg/kg, vs saline controls, C57BL/6 mice, 6 min
Description: Inbred adult male C57BL/6 mice (aged 10–12 weeks and weighing 20–25 g) were obtained from the animal facility in the College of Medicine and Health Sciences, United Arab Emirates University. The animals were maintained in a separate air-conditioned room with controlled temperature and humidity (24 ± 2 °C and 55 ± 15%, respectively), with a 12 h light/dark cycle, and ad libitum to food and water. All the experiments were performed between 9.00 am and 3.00 pm. The procedures were approved by the Institutional Animal Ethics Committee of College of Medicine and Health Sciences/United Arab Emirates University (Approval No. ERA-2019-6010). To reduce the suffering of the animals, a minimum number of animals were used in this study, whereas the objectives were not compromised.
These experiments provide the first behavioral assessment of the ST-2300 in anxiety-like and depression-like behaviors in mice. All doses are expressed in terms of the free base of all test compounds. The drugs used in the current study were dissolved in saline and injected i.p. at a volume of 1 mL/kg. All experimental procedures were conducted in a blinded fashion in which the experimenter was uninformed about the specific treatment groups to which an animal group belonged. Saline, ST-2300 (5, 10, and 15 mg/kg), PIM (5, 10, and 15 mg/kg), FLX (10 mg/kg), RAM (10 mg/kg), and DZP (1 mg/kg) were injected i.p. 30–45 min before the beginning of the behavioral experiments.
This experimental protocol was followed as previously described, however with slight modifications. Each mouse was suspended on the edge of a rod 50 cm above a table top using adhesive Scotch tape placed approximately 1 cm from the tip of the tail. Tail climbing was prevented by passing the mouse’s tail through a small plastic cylinder prior to suspension, as described by Can et al.. The duration of immobility was manually scored for a 6 min observation period. Mice were considered immobile only when they hung down passively and were completely motionless. The parameter recorded was the number of seconds spent immobile.

hD1R = target: T3, hD1R (Homo sapiens, UniProt P21728); experiment: Radioligand displacement assay at dopamine D1R ([3H]-SCH23390, HEK293 cells); type: binding; details: HEK293 cells stably expressing human D1R, read-out: Ki (n), D1R
T3 construct: expressed in transfected cells; host or cells: HEK293
T3 sequence (P21728 whole entry): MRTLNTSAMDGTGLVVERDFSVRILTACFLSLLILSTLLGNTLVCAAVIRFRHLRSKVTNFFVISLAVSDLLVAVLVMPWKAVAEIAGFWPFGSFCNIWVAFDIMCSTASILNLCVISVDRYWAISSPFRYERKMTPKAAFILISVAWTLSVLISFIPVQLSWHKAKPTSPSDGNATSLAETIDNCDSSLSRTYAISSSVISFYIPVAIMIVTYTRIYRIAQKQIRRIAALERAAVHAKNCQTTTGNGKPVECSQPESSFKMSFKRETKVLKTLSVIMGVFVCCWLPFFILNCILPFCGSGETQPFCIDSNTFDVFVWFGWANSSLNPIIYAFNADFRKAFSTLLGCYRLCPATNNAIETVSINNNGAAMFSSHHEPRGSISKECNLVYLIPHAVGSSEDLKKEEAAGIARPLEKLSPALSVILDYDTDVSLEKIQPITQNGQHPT
Description: hD1R affinity was determined according to the procedure of hD3R [43]. Membrane preparations of HEK293 cells stably expressing the hD1R were used with 20 µg/well. [^3H]-SCH23390 was used as radioligand in a concentration of 0.3 nM. Nonspecific binding was determined in the presence of 100 µM fluphenazine. The following steps were performed as describedbefore.

| SMILES | pKi (human 5-HT1A) | pKi (human 5-HT7b) | immobility time in TST (C57BL/6 mice) | pKi (hD1R) | immobility time in TST, co-administration of RAM (C57BL/6 mice; ST-2300 10 mg/kg i.p. co-administered with H3R agonist RAM 10 mg/kg i.p., vs ST-2300 alone) |
| --- | --- | --- | --- | --- | --- |
| CC(C)COc1ccc(CNC(=O)N(Cc2ccc(F)cc2)C2CCN(C)CC2)cc1 [Pimavanserin, reference compound] | < 5.00 | < 5.00 | failed to affect the overall immobility time | – | – |
| CN1CCC(N(Cc2ccc(F)cc2)C(=O)NCc2ccc(OCCCN3CCCCC3)cc2)CC1 [ST-2300, 1-(4-Fluorobenzyl)-1-(1-methylpiperidin-4-yl)-3-{4-[3-(piperidin-1-yl)propoxy]benzyl}urea] | < 5.00 | < 5.00 | significantly reduced the immobility time | < 5.00 | reversed by systemic co-administration with the CNS-penetrant H3R agonist RAM |
